In patent US20020028809A1 (SUNTORY LIMITED, priority 1999, published 2002):
Like-named read-outs stand apart in the source and are kept apart here.

Tests used:
[1] = biological target: T1, α1β1γδ subtype of nicotinic acetylcholine receptors (Rattus norvegicus, UniProt P18916+P25108+P25109+P25110); assay: Binding assays at α1β1γδ subtype of nicotinic acetylcholine receptors ([3H]-α-bungarotoxin, rat muscle extract); conditions: for remaining activity at 100 µM / remaining activity at 1000 µM: read-out: control % of [3H]-α-Bgt binding
T1 construct: Native receptor, no construct: "Triton X100 (2% w/v) was added
T1 sequence (P25108 21-457): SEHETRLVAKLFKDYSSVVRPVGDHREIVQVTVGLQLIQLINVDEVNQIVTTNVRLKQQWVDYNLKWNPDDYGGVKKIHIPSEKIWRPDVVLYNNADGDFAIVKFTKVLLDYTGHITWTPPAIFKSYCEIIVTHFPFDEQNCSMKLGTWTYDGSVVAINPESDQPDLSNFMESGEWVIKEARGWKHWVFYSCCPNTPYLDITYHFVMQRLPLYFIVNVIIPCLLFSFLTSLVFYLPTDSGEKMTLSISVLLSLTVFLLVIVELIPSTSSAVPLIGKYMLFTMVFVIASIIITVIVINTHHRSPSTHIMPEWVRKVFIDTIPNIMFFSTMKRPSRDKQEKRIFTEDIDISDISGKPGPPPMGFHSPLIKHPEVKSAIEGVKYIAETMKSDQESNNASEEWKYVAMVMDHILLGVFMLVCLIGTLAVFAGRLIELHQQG
T1 sequence (P25110 22-517): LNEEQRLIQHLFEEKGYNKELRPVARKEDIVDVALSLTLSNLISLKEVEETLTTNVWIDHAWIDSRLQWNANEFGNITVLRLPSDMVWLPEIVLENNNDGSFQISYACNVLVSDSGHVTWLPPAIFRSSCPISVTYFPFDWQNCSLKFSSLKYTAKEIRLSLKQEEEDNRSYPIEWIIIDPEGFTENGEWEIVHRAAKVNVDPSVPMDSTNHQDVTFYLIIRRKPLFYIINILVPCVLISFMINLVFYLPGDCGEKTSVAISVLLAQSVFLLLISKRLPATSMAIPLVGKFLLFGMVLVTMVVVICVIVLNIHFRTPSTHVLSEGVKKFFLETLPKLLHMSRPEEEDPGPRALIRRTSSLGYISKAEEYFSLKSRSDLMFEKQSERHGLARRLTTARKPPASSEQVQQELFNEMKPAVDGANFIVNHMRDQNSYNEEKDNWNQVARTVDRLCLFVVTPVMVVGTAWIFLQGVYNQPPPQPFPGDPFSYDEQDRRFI
T1 sequence (P25109 24-501): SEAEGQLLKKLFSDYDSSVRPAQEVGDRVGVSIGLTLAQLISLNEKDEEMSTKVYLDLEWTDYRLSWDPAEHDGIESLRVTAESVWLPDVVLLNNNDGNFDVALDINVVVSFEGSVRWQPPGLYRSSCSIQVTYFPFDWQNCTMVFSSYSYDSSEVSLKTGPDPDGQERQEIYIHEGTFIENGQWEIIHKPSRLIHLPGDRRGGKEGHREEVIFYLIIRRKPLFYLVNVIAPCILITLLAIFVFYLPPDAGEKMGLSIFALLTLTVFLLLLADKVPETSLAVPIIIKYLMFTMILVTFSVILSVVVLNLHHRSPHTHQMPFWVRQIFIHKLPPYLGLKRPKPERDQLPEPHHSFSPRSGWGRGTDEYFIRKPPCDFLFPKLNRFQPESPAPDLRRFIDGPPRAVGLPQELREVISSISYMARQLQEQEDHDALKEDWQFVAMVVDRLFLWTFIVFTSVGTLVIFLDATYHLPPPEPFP

[2] = biological target: T2, human α4β2 subtype of nicotinic acetylcholine receptors (Homo sapiens, UniProt P17787+P43681); assay: Agonist activities at human α4β2 subtype of nicotinic acetylcholine receptors expressed in Xenopus oocytes (membrane potential holding method); assay type: cell-based; conditions: for Emax at 100 µM: read-out: Agonist activity: control % by response at 100 μM of the test compound
T2 construct: expressed in transfected cells; host or cells: Xenopus laevis oocytes injected with 50 ng each of α4 and β2 cRNA (pSP64 polyA vector)
T2 sequence (P43681 29-627 limits assumed): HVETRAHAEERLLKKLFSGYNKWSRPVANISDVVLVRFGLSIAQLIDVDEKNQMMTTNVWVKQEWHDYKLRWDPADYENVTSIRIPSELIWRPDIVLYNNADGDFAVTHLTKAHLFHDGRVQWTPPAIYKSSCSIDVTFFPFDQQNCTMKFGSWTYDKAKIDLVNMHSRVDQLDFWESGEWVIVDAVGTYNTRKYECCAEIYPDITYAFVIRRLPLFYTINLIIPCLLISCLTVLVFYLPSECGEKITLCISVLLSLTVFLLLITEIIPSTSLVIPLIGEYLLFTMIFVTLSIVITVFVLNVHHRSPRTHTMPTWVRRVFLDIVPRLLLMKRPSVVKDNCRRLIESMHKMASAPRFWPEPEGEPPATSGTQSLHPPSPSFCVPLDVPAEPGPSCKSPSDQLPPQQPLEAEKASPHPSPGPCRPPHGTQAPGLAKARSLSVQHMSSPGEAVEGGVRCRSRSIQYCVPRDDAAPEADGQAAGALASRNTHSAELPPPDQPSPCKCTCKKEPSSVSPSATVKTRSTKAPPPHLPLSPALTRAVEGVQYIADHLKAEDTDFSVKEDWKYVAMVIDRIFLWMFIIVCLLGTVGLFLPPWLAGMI
T2 sequence (P17787 26-502): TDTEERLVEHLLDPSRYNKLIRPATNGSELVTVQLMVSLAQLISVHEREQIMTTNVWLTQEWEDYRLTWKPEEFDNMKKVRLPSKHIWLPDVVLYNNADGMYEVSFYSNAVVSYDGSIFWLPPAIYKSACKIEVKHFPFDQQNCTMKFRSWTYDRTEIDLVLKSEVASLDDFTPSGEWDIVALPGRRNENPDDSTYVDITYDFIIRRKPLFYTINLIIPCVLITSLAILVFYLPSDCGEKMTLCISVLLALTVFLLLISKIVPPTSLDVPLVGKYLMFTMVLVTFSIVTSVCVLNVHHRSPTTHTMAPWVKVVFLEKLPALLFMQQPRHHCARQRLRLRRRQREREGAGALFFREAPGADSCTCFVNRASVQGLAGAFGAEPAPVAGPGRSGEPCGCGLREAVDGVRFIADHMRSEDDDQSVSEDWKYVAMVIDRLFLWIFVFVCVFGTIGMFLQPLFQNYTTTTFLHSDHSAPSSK
Procedure: Agonist effect in human α4β2 subtype of nicotinic acetylcholine receptors are examined by using human nicotinic acetylcholine receptors prepared in oocytes of Xenopus laevis, which is injected with cRNA from the corresponding cloning cDNA of human α4 and β2 subunits of nicotinic acetylcholine receptors, and to measure the expression of electric response by adding the test compounds to perfusion solution by means of membrane potential holding method.
Agonist Activities at Human α4β2 Subtype of Nicotinic Acetylcholine Receptors
(1) Preparation of cRNA of Human α4β2 Subtype of Nicotinic Acetylcholine Receptors
Obtained hnACh-R α4 cDNA and hnACh-R β2 cDNA were inserted to the cRNA expression vector (pSP64 polyA) having SP6 RNA promoter to construct hnACh-R α4/pSP64 polyA and hnACh-R β2/pSP64 polyA, respectively. After cutting from expression vector by restriction enzyme (EcoRI), transcription was performed by affecting SP6 RNA polymerase in the presence of cap analogues to obtain hnACh-R α4 cRNA and hnACh-R β2 cRNA, respectively.
(2) Expression of Human α4β2 Subtype Nicotinic Acetylcholine Receptors in Xenopus oocytes
Oocytes were purchased from Kitanihonseibutsukyohzai Co., Ltd., which were already enucleated from Xenopus laevis, and used in this experiment.
The oocytes were treated with collagenase (Sigma type I; 1 mg/ml) in calcium-free modified Birth's solution (88 mM of NaCl, 1 mM of KCl, 2.4 mM of NaHCO3, 0.82 mM of MgSO4, 15 mM of HEPES, pH 7.6) under gently stirring at room temperature for 90 minutes, and washed out the enzyme from the tissue. Then, oocytes were separated from ovarian follicle by tweezers, and isolated oocytes were placed in antibiotics containing modified Birth's solution (88 mM of NaCl, 1 mM of KCl, 2.4 mM of NaHCO3, 0.82 mM of MgSO4, 15 mM of HEPES, pH 7.6, and 0.1 v/v% of mixture solution containing of penicillin and streptomycin for incubation; Sigma Co.). […] In oocytes, heterogeneous quintuple [(α4)2(β2)3] was composed by translation of injected cRNAs, and ion channel receptors were constructed on cell membrane.
(3) Agonist Activities at Human α4β2 Subtype of Nicotinic Acetylcholine Receptors
Recordings of response at human α4β2 subtype of nicotinic acetylcholine receptors by means of membrane potential holding method were performed as follow. […] Test compounds were added to the perfusion solution, and recorded the peak strength of induced inward current. In order to normalize the response of test compounds, the response with acetylcholine (Ach) were recorded before and after application of the test compounds. Generally in the oocytes just after isolated, the response of intrinsic muscarinic acetylcholine receptors, which is inward electric current caused by activation of calcium dependence chloride ion channels with increase of the intracellular calcium concentration by stimulation of receptors, is observed. […] Therefore, the responses observed in oocytes with injection of hnACh-R α4 cRNA and hnACh-R β2 cRNA, i.e., the inward current induced by the intracellular influx of sodium ion according to the stimulation of receptors, would be the freshly observed responses of human α4β2 subtype nicotinic acetylcholine receptors.

[3] = Xenopus oocytes expressing human α4β2, held at −50 mV, peak inward current, read-out: Agonist activity (ED50)
[4] = 100 μM test compound, in comparison with the response at 10 μM acetylcholine (100%)

SMILES | remaining activity at 100 µM [1] [%] | remaining activity at 1000 µM [1] [%] | Emax at 100 µM [2] [%] | further results
N=C1SCCN1Cc1cnc(Cl)s1 [Compound 34, 3-(2-chloro-5-thiazolyl)methyl-2-iminothiazolidine] | 14 | -1 | 13 | 
N=C1NCCN1Cc1ccc(Cl)nc1 [Compound 13, 1-(6-Chloro-3-pyridyl)methyl-2-iminoimidazolidine] | 26 | 8 |  | EC50 [2, 3]: 14.7 µM
N=C1CCCN1Cc1ccc(Cl)nc1 [Compound 14, 1-(6-Chloro-3-pyridyl)methyl-2-iminopyrrolidine] | 14 | 0 |  | EC50 [2]: 27.1 µM
N=c1sccn1Cc1ccc(F)nc1 [Compound 12, 3-(6-fluoro-3-pyridyl)methyl-2-imino-2,3-dihydrothiazole] | 20 | -2 | 21 | 
N=C1SCCN1Cc1ccc(Cl)nc1 [Compound 5, 3-(6-chloro-3-pyridyl)methyl-2-iminothiazolidine] |  |  |  | Ki [1]: 7.65 µM; Emax at 100 µM [2, 4]: 4.9%
N=C1SCCN1Cc1ccnnc1 [Compound 33, 2-imino-3-(4-pyridazinyl)methylthiazolidine] | 15 | 1 | 6 | 
Nc1nccn1Cc1cccnc1 [Compound 55, 2-amino-i-(3-pyridyl)methylimidazole] |  |  |  | Ki ([1]; rat muscle extract, [3H]-α-Bgt (1 nM), read-out: Affinities for receptors Ki α1β1γδ): 66 µM; Emax at 100 µM [2, 4]: 17%
N=c1sccn1Cc1ccc(Br)nc1 [Compound 11, 3-(6-bromo-3-pyridyl)methyl-2-imino-2,3-dihydrothiazole] | 13 | 5 | 47 | 
Nc1nccn1Cc1ccc(Cl)nc1 [Compound 9, 2-amino-1-(6-chloro-3-pyridyl)methylimidazole] | 86 | 49 |  | EC50 [2, 3]: 92 µM
N=c1ccc(-c2ccccc2)nn1Cc1ccc(Cl)nc1 [Compound 44, 2-(6-chloro-3-pyridyl)methyl-3-imino-6-phenyl-2,3-dihydropyridazine] | 80 | 26 | 10 | 
N=c1sccn1Cc1ccc(Cl)nc1 [Compound 8, 3-(6-chloro-3-pyridyl)methyl-2-imino-2,3-dihydrothiazole] |  |  |  | Ki [1]: 10.2 µM; EC50 [2, 3]: 4.2 µM
N=C1SCCN1Cc1ccc(Cl)cc1 [Compound 31, 3-(4-chlorobenzyl)-2-iminothiazolidine] | 37 | 10 | 4 | 
N=c1ccccn1Cc1ccc(Cl)nc1 [Compound 7, 1-(6-chloro-3-pyridyl)methyl-2-imino-1,2-dihydropyridine] |  |  |  | Ki [1]: 71.2 µM; Emax at 100 µM [2, 4]: 16%
